# Laboratory results: patent publication US10752884B2, “Method of inducing beta cells from urine-derived cells using small molecules” (UNIVERSITY OF SOUTH AUSTRALIA, priority 2014, dated 2020)
# Columns and labels:
# ALK1 = ALK1 (Homo sapiens, UniProt P37023); details: cited from earlier work
# TGF-β-induced EMT = details: via the inhibition of Smad2 phosphorylation; cited from earlier work
# ALK2 = target: T1, ALK2 (Homo sapiens, UniProt Q04771); details: cited from earlier work
# T1 sequence (Q04771 21-509): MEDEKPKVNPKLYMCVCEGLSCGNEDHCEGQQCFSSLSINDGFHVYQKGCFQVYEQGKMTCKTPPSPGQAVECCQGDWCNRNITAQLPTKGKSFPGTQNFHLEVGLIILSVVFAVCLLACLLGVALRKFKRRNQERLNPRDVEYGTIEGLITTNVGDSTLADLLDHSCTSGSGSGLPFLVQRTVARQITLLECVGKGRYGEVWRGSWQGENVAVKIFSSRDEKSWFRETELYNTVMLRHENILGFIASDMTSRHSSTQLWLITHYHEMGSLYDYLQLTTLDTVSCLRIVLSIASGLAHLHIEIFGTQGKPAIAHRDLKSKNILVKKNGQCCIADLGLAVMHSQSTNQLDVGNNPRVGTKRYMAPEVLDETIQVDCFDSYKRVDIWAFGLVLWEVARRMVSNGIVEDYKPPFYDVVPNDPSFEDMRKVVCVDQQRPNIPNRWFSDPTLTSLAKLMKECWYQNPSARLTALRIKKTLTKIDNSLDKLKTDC
# ALK3 = ALK3 (Homo sapiens, UniProt P36894); details: cited from earlier work
# ALK4 = details: cited from earlier work
# ALK6 = ALK6 (Homo sapiens, UniProt O00238); details: cited from earlier work
# human urine cells (HUC) = assay: Secondary induction, cell morphology by phase contrast microscopy; format: cell-based; details: after Example 2 primary induction; 330 nm Indolactam V, four days
# Method: HUC-M-35 P5 cells were prepared using the primary induction protocol described in Example 2. The cells were then cultured in a secondary induction medium containing DMEM, […] Indolactam V, 1×2 mM L-glutamine (Life Technologies, Cat No. 25030-081), and 1×B27 (Life Technologies, Cat No. 17504044) and p/s as detailed above for four days. The morphology of the resultant cells was examined by phase contrast microscopy.
# HUC-M-35 P5 cells were induced using the primary induction protocol described in Example 2. […] The morphology of the resultant cells was assessed by phase contrast microscopy.
# Sequence of ALK3 (P36894 24-532): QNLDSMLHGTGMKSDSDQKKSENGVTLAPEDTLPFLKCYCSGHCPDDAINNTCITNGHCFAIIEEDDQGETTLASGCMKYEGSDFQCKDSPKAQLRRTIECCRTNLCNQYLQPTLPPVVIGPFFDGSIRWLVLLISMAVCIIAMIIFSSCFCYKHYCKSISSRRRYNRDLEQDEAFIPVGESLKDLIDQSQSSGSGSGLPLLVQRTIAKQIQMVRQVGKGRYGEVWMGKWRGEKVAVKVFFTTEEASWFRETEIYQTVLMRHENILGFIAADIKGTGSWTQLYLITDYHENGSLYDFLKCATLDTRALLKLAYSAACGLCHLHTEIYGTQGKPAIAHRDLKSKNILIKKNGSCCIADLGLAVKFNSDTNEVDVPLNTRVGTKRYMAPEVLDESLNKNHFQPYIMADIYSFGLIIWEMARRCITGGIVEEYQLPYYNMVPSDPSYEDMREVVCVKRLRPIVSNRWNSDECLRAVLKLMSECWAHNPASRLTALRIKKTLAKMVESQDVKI
# Sequence of ALK6 (O00238 14-502): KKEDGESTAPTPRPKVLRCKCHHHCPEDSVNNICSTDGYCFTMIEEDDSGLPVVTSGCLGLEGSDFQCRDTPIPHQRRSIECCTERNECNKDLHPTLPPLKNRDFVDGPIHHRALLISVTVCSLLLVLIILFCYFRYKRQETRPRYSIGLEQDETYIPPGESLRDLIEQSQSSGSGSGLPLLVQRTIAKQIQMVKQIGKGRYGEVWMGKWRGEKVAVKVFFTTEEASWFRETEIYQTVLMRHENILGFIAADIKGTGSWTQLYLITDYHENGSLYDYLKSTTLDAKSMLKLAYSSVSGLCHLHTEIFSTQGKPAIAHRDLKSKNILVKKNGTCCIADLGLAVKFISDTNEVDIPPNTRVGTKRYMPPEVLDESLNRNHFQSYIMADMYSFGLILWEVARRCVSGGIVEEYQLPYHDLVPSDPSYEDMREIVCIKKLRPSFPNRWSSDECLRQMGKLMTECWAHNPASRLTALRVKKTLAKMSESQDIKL
# Sequence of ALK1 (P37023 22-503, species assumed): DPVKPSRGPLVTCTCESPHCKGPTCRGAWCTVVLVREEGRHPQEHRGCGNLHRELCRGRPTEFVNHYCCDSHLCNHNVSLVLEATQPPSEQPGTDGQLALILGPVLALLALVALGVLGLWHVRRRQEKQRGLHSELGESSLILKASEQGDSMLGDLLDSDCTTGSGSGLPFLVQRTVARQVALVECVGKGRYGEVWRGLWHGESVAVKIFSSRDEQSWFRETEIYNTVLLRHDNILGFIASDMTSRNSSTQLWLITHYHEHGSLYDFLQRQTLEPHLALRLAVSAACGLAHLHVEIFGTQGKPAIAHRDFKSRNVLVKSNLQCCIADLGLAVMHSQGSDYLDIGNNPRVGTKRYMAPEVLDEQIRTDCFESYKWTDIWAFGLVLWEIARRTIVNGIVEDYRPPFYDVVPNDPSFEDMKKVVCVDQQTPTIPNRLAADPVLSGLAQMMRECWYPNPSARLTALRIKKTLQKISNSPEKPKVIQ
SMILES,inhibition of ALK1 (ALK1),inhibition of TGF-β-induced EMT (TGF-β-induced EMT),inhibition of ALK2 (ALK2),inhibition of ALK3 (ALK3),IC50 (ALK4),inhibition of ALK6 (ALK6),cell morphology following secondary induction (human urine cells (HUC))
"Cc1cccc(-c2nn(C(=S)Nc3ccccc3)cc2-c2ccnc3ccccc23)n1 [A83-01, 3-(6-Methyl-2-pyridinyl)-N-phenyl-4-(4-quinolinyl)-1H-pyrazole-1-carbothioamide]",weakly inhibits,inhibit,weakly inhibits,weakly inhibits,12 nM,weakly inhibits,–
"CC(C)[C@H]1C(=O)N[C@H](CO)Cc2c[nH]c3cccc(c23)N1C [Indolactam V, (2S,5S)-1,2,4,5,6,8-Hexahydro-5-(hydroxymethyl)-1-methyl-2-(1-methylethyl)-3H-pyrrolo[4,3,2-gh]-1,4-benzodiazonin-3-one]",–,–,–,–,–,–,some cells appeared to have an islet cell morphology
